Assay results reported in US20250057814A1, “ENDODONTIC BIOFILM-ERADICATION TECHNIQUE UTILIZING A DUAL-SYSTEM INTRACANAL MEDICATION” (priority 2023, published 2025).
Marks after values point to notes of the source that are not given here.

How the values were obtained:
E. coli ATCC 25922 = details: reference 26, cited from earlier work
P. pseudomallei = details: reference 208, cited from earlier work
S. aureus NCTC 8325-4 = details: reference 215, cited from earlier work
endodontic lesions = assay: Intracanal medication of patients with large endodontic lesions, healing evaluated by CBCT and radiograph; assay type: in vivo; details: 12 months post obturation

Structure (SMILES): CC1(C)S[C@@H]2[C@H](NC(=O)[C@H](N)c3ccccc3)C(=O)N2[C@H]1C(=O)O [Ampicillin]
- Concentration effective against biofilm phenotype (E. coli ATCC 25922; biofilm, minimal biofilm eradication concentration): 512^b μg/ml
- MIC of planktonic phenotype (E. coli ATCC 25922; planktonic E. coli ATCC 25922): 2 (MIC) μg/ml

Structure (SMILES): CC(C)(O/N=C(\C(=O)N[C@@H]1C(=O)N2C(C(=O)[O-])=C(C[n+]3ccccc3)CS[C@H]12)c1csc(N)n1)C(=O)O [Ceftazidime]
- Concentration effective against biofilm phenotype (P. pseudomallei; biofilm, concentration required for ~99% reduction): 800^c μg/ml
- MBC of planktonic phenotype (P. pseudomallei; planktonic P. pseudomallei): 8 (MBC) μg/ml

Structure (SMILES): CN[C@H](CC(C)C)C(=O)N[C@H]1C(=O)N[C@@H](CC(N)=O)C(=O)N[C@H]2C(=O)N[C@H]3C(=O)N[C@H](C(=O)N[C@H](C(=O)O)c4cc(O)cc(O)c4-c4cc3ccc4O)[C@H](O)c3ccc(c(Cl)c3)Oc3cc2cc(c3O[C@@H]2O[C@H](CO)[C@@H](O)[C@H](O)[C@H]2O[C@H]2C[C@](C)(N)[C@H](O)[C@H](C)O2)Oc2ccc(cc2Cl)[C@H]1O [Vancomycin]
- Concentration effective against biofilm phenotype (S. aureus NCTC 8325-4; biofilm, concentration required for 99% reduction): 20^a μg/ml
- MBC of planktonic phenotype (S. aureus NCTC 8325-4; planktonic S. aureus NCTC 8325-4): 2 (MBC) μg/ml

Structure (SMILES): [Ca+2].[OH-].[OH-] [calcium hydroxide]
- change in size of lesion, Example Case No. 3 (endodontic lesions; tooth 10): no change in the size of lesion
- lesion healing, Example Case No. 3 side-by-side comparison (endodontic lesions; four weeks of intra-canal medication, teeth 7 and 8 formula, tooth 10 calcium hydroxide): non-healing of the smaller lesion
